Laboratory results as given in PubChem BioAssay (NCI).
“And” between values parts separate entries of the source, which are not always exact repeats. Equal entries are not always repeated.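 Tested at 5 concentrations; 48 h exposure; 96-well plates; endpoints linearly interpolated, else capped at highest concentration. At the GI50, growth is halved. Definition used: TGI = concentration required for complete inhibition of growth.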

Key:
Experiment in all cases: inhibition of tumour cell growth, NCI panel, 48 h
MDA-MB-468 breast = tested on: MDA-MB-468 breast
COLO 205 colon = tested on: COLO 205 colon
KM12 colon = tested on: KM12 colon
786-0 renal = tested on: 786-0 renal
SK-OV-3 ovarian = tested on: SK-OV-3 ovarian
SK-MEL-2 melanoma = tested on: SK-MEL-2 melanoma
HS 578T breast = tested on: HS 578T breast
SNB-19 CNS = tested on: SNB-19 CNS
NCI-H522 lung = tested on: NCI-H522 lung
TK-10 renal = tested on: TK-10 renal
DU-145 prostate = tested on: DU-145 prostate
OVCAR-5 ovarian = tested on: OVCAR-5 ovarian
SF-295 CNS = tested on: SF-295 CNS
NCI-H460 lung = tested on: NCI-H460 lung
OVCAR-8 ovarian = tested on: OVCAR-8 ovarian
SW-620 colon = tested on: SW-620 colon
MDA-MB-231 breast = tested on: MDA-MB-231 breast
NCI-H226 lung = tested on: NCI-H226 lung
HL-60(TB) leukemia = tested on: HL-60(TB) leukemia
HOP-92 NSCLC = tested on: HOP-92 NSCLC
SK-MEL-5 melanoma = tested on: SK-MEL-5 melanoma
UO-31 renal = tested on: UO-31 renal
SK-MEL-28 melanoma = tested on: SK-MEL-28 melanoma
IGROV1 ovarian = tested on: IGROV1 ovarian
HCT-15 colon = tested on: HCT-15 colon
U251 CNS = tested on: U251 CNS
HCT-116 colon = tested on: HCT-116 colon
MOLT-4 leukemia = tested on: MOLT-4 leukemia
SR leukemia = tested on: SR leukemia
MCF7 breast = tested on: MCF7 breast
UACC-62 melanoma = tested on: UACC-62 melanoma
BT-549 breast = tested on: BT-549 breast
HOP-62 NSCLC = tested on: HOP-62 NSCLC
ACHN renal = tested on: ACHN renal
HT29 colon = tested on: HT29 colon
OVCAR-4 ovarian = tested on: OVCAR-4 ovarian
T-47D breast = tested on: T-47D breast
EKVX NSCLC = tested on: EKVX NSCLC
SN12C renal = tested on: SN12C renal
UACC-257 melanoma = tested on: UACC-257 melanoma
M14 melanoma = tested on: M14 melanoma
A549 NSCLC = tested on: A549 NSCLC
CAKI-1 renal = tested on: CAKI-1 renal
OVCAR-3 ovarian = tested on: OVCAR-3 ovarian
NCI-H23 lung = tested on: NCI-H23 lung
K-562 leukemia = tested on: K-562 leukemia
RXF 393 renal = tested on: RXF 393 renal
MALME-3M melanoma = tested on: MALME-3M melanoma
SF-268 CNS = tested on: SF-268 CNS
PC-3 prostate = tested on: PC-3 prostate
A498 renal = tested on: A498 renal
SF-539 CNS = tested on: SF-539 CNS
MDA-MB-435 = tested on: MDA-MB-435
HCC-2998 colon = tested on: HCC-2998 colon

## Nc1nc2ccc(-c3nc4ccc5[nH]ncc5c4c4c3CCC4)cc2s1
MDA-MB-468 breast
  GI50: 0.182 µM
  TGI: 4.36 µM

## CC1=C2C(=C[C@@](C)(CO)[C@@H]2OC(=O)N(C)CCN(C)C(=O)OC(C)(C)C)C(=O)[C@](C)(O)C12CC2
MDA-MB-468 breast
  GI50: 1.1 µM
  TGI: 3.8 µM

## CN1CCC(CNc2cc(C3(C(=O)Nc4cc(C(=O)Nc5ccc(Cl)c(C(F)(F)F)c5)ccc4F)CC3)ncn2)CC1
MDA-MB-468 breast
  GI50: 1.83 µM
  TGI: 4.41 µM

## O=C1/C(=C/c2ccc([N+](=O)[O-])cc2)CN(C(=O)CCN2CCC(=NO)CC2)C/C1=C\c1ccc([N+](=O)[O-])cc1
MDA-MB-468 breast
  GI50: 1.06 µM
  TGI: 3.61 µM

## CCCN1C(=O)NC(=O)C(CC)(N2C(=O)c3c(F)c(F)c(F)c(F)c3C2=O)C1=O (stereo not given)
MDA-MB-468 breast
  GI50: 1.54 µM
  TGI: 3.93 µM

## Cc1cc(=O)oc2cc(OCCOc3ccc(/C=C/C(=O)Nc4ccccc4N)cc3)ccc12
COLO 205 colon
  GI50: 3.68 µM
  TGI: > 100 µM
KM12 colon
  GI50: 5.12 µM
  TGI: > 100 µM
786-0 renal
  GI50: 3.75 µM
  TGI: > 100 µM
SK-OV-3 ovarian
  GI50: 8.39 µM
  TGI: > 100 µM
SK-MEL-2 melanoma
  GI50: 5.81 µM
  TGI: > 100 µM
HS 578T breast
  GI50: > 100 µM
  TGI: > 100 µM
SNB-19 CNS
  GI50: 4.42 µM
  TGI: > 100 µM
NCI-H522 lung
  GI50: 4 µM
  TGI: > 100 µM
TK-10 renal
  GI50: 9.25 µM
  TGI: > 100 µM
DU-145 prostate
  GI50: 6.8 µM
  TGI: > 100 µM
OVCAR-5 ovarian
  GI50: 6.43 µM
  TGI: > 100 µM
MDA-MB-468 breast
  GI50: 3.41 µM
  TGI: 96.2 µM
SF-295 CNS
  GI50: 4.8 µM
  TGI: > 100 µM
NCI-H460 lung
  GI50: 2.74 µM
  TGI: > 100 µM
OVCAR-8 ovarian
  GI50: 3.99 µM
  TGI: > 100 µM
SW-620 colon
  GI50: 4.16 µM
  TGI: > 100 µM
MDA-MB-231 breast
  GI50: 2.55 µM
  TGI: 35.1 µM
NCI-H226 lung
  GI50: 4.09 µM
  TGI: > 100 µM
HL-60(TB) leukemia
  GI50: 0.369 µM
  TGI: 2.62 µM
HOP-92 NSCLC
  GI50: 3.45 µM
  TGI: > 100 µM
SK-MEL-5 melanoma
  GI50: 1.48 µM
  TGI: 3.2 µM
UO-31 renal
  GI50: 1.31 µM
  TGI: > 100 µM
SK-MEL-28 melanoma
  GI50: 5.2 µM
  TGI: > 100 µM
IGROV1 ovarian
  GI50: 2.08 µM
  TGI: > 100 µM
HCT-15 colon
  GI50: 3.17 µM
  TGI: > 100 µM
U251 CNS
  GI50: 5.59 µM
  TGI: > 100 µM
HCT-116 colon
  GI50: 3.31 µM
  TGI: > 100 µM
MOLT-4 leukemia
  GI50: 0.294 µM
  TGI: 1.34 µM
SR leukemia
  GI50: 5.66 µM
  TGI: > 100 µM
MCF7 breast
  GI50: 1.27 µM
  TGI: > 100 µM
UACC-62 melanoma
  GI50: 3.74 µM
  TGI: > 100 µM
BT-549 breast
  GI50: 1.2 µM
  TGI: 4.93 µM
HOP-62 NSCLC
  GI50: 8.17 µM
  TGI: > 100 µM
ACHN renal
  GI50: 5.52 µM
  TGI: > 100 µM
HT29 colon
  GI50: 4.45 µM
  TGI: > 100 µM
OVCAR-4 ovarian
  GI50: 4.86 µM
  TGI: > 100 µM
T-47D breast
  GI50: 1.59 µM
  TGI: > 100 µM
EKVX NSCLC
  GI50: 6.5 µM
  TGI: > 100 µM
SN12C renal
  GI50: 2.77 µM
  TGI: > 100 µM
UACC-257 melanoma
  GI50: 2.87 µM
  TGI: > 100 µM
M14 melanoma
  GI50: 9.87 µM
  TGI: > 100 µM
A549 NSCLC
  GI50: 4.27 µM
  TGI: > 100 µM
CAKI-1 renal
  GI50: 4.58 µM
  TGI: > 100 µM
OVCAR-3 ovarian
  GI50: 4.19 µM
  TGI: > 100 µM
NCI-H23 lung
  GI50: 6.05 µM
  TGI: > 100 µM
K-562 leukemia
  GI50: 3.01 µM
  TGI: > 100 µM
RXF 393 renal
  GI50: 3.64 µM
  TGI: > 100 µM
MALME-3M melanoma
  GI50: 3.89 µM
  TGI: > 100 µM
SF-268 CNS
  GI50: 4.43 µM
  TGI: > 100 µM
PC-3 prostate
  GI50: 3.1 µM
  TGI: > 100 µM
A498 renal
  GI50: 2.74 µM
  TGI: 9.36 µM
SF-539 CNS
  GI50: 2.58 µM
  TGI: > 100 µM
MDA-MB-435
  GI50: 6.69 µM
  TGI: > 100 µM
HCC-2998 colon
  GI50: 5.47 µM
  TGI: > 100 µM

## Nc1ncn([C@@H]2S[C@H](CO)[C@@H](O)[C@@H]2F)c(=O)n1
MDA-MB-468 breast
  GI50: > 100 µM
  TGI: > 100 µM

## O=C1OCC2=C1C(c1cccc(F)c1)c1cc3c(cc1N2CCO)OCO3 (stereo not given)
MDA-MB-468 breast
  GI50: 1.12 µM
  TGI: > 50 µM

## O=C(NCC1CC1)c1ccc(-c2cccc(C(=O)NC3CC3)c2)cc1
MDA-MB-468 breast
  GI50: > 25 µM
  TGI: > 25 µM

## CCOc1ccccc1CCN=C1NC(=O)/C(=C/c2ccc3ncccc3c2)S1
MDA-MB-468 breast
  GI50: 1.16 µM
  TGI: > 16.9 µM

## O=S(=O)(Nc1ccc(Br)cc1)c1ccc(-c2cnc(C3CC3)o2)cc1
MDA-MB-468 breast
  GI50: 1.13 µM
  TGI: 7.28 µM

## CCSC1=NC2C(N(CC)C(=O)N2CC)N1/N=C/C=C/c1ccccc1[N+](=O)[O-] (stereo not given)
MDA-MB-468 breast
  GI50: 0.1 µM

## C=C1CCC2C3(C)COC(C)(C)OC3CCC2(C)C1C/C=C1/C(=O)OCC1OC(C)=O (stereo not given)
MDA-MB-468 breast
  GI50: 1.44 µM
  TGI: 3.06 µM

## Cc1c2cnccc2c(C)c2c1c1cc(C#N)ccc1n2C
MDA-MB-468 breast
  GI50: 0.228 µM
  TGI: 0.741 µM

## CCc1c2c(nc3ccc(OCc4ccc(B(O)O)cc4)cc13)-c1cc3c(c(=O)n1C2)COC(=O)[C@]3(O)CC
MDA-MB-468 breast
  GI50: < 0.01 µM
  TGI: 0.0355 µM

## CC1=C([Se]CC(OC(=O)CC[Se]c2ccccc2)C(=O)NC(C)(C)C)C(=O)c2ccccc2C1=O (stereo not given)
MDA-MB-468 breast
  GI50: 0.509 µM
  TGI: 2.06 µM

## COc1cccc(-c2nc3cc(NC(=O)c4ccc(Cl)c(C#N)c4)ccc3o2)c1
MDA-MB-468 breast
  GI50: 1.6 µM
  TGI: 3.44 µM

## COc1ccc2c(c1)C(=O)/C(=C/c1cccc(OCC(=O)c3ccccc3)c1)CC2
MDA-MB-468 breast
  GI50: 2.68 µM
  TGI: 74.2 µM

## Cc1ccc2cnc(N)c(C#Cc3cc(C(=O)Nc4ccc(CN5CCN(C)CC5)c(C(F)(F)F)c4)cnc3C)c2c1
MDA-MB-468 breast
  GI50: 0.932 µM
  TGI: 2.08 µM

## c1ccc(-c2nc(-c3ccccn3)nc(-c3ccccn3)n2)nc1
MDA-MB-468 breast
  GI50: 30.4 µM
  TGI: 99.1 µM

## Cn1ncc(-c2ccc3c(=O)[nH]nc(CN)c3c2)c1-c1c(F)c(Cl)cc(OC2CC2)c1C#N
MDA-MB-468 breast
  GI50: 11.7 µM and 10.2 µM
  TGI: 24.8 µM and 22.5 µM

## COc1cc(/C=C/C(=O)/C=C/c2cc(OC)c3c(c2)OCO3)cc2c1OCO2
MDA-MB-468 breast
  GI50: 3.46 µM
  TGI: 28.3 µM

## CCN1C(=O)N(CC)C2C1NN=c1s/c(=C\c3ccc(Cl)cc3Cl)c(=O)n12 (stereo not given)
MDA-MB-468 breast
  GI50: 0.0417 µM
  TGI: 19.4 µM

## O=C(Nc1cccc(Cl)c1)Nn1cnnc1
MDA-MB-468 breast
  GI50: > 50 µM
  TGI: > 50 µM

## CCCCN(CCCC)Cc1cc(Nc2ccnc3cc(Cl)ccc23)ccc1O
MDA-MB-468 breast
  GI50: 4.94 µM
  TGI: > 100 µM

## O=C(O)c1nc(NCc2nc3cc(Cl)ccc3o2)n[nH]1
MDA-MB-468 breast
  GI50: > 100 µM
  TGI: > 100 µM

## COc1cc(C)ccc1C(=O)c1ccc(C)cc1OC
MDA-MB-468 breast
  GI50: 1.39 µM
  TGI: > 100 µM

## CCOC(=O)Oc1c(OC)cc(C(=O)c2ccc(OC)c(O)c2OC)cc1OC
MDA-MB-468 breast
  GI50: 2.65 µM
  TGI: > 100 µM

## N#C[Se]Cc1cc(-c2ccccc2)n(-c2ccc(S(N)(=O)=O)cc2)n1
MDA-MB-468 breast
  GI50: 1.59 µM
  TGI: 3.47 µM

## CC(CO)Nc1cc(-c2[nH]c3cccnc3c2-c2ccc(F)cc2)ccn1 (stereo not given)
MDA-MB-468 breast
  GI50: 6.74 µM
  TGI: > 25 µM
